# pIC50: −log10 of the molar value.
# Tested on: LNCaP/AR cells
# Assay: Inhibition of proliferation of LNCaP/AR prostate cancer cells (CCK-8)
# Assay type: cell-based
# Details: proliferation of LNCap/AR cells, 6 days, CCK-8; read-out: IC50
row,Substance,pIC50
1,"(2R,4R)-1-((S)-2-(2-((1-(3-(2-((1r,3r)-3-(3-chloro-4-cyanophenoxy)-2,2,4,4-tetramethylcyclobutyl)-1-oxoisoindolin-5-yl)prop-2-yn-1-yl)azetidine-3-yl)oxy) acetylamino)-3,3-dimethylbutyryl)-4-hydroxy-N-((S)-1-(4-(4-(4-methylthiazol-5-yl)phenyl)ethyl)pyrrolidine-2-carboxamide [Compound 40]",6.30 to 7.00
2,"(2R,4R)-1-((S)-2-(2-((5-((4-((1r,3r)-3-(4-(4H-1,2,4-triazol-1-yl)phenoxy)-2,2,4,4-tetramethylcyclobutyl)carbamoyl)phenyl)amino)pentyl)oxy)acetamide)-3,3-dimethylbutyryl)-4-hydroxy-N-((S)-1-(4-(4-methylthiazol-5-yl)phenyl)ethyl) pyrrolidine-2-carboxamide [Compound 405]",< 6.00
3,"(2R,4R)-1-((S)-2-(2-((6-(4-(((1r,3r)-3-(3-chloro-4-cyanophenoxy)-2,2,4,4-tetramethylcyclobutyl)(methoxy)benzamido)hex-5-yn-1-)oxy)acetamido)-3,3-dimethylbutyryl)-4-hydroxy-N-((S)-1-(4-(4-methylthiazol-5-)phenyl)ethyl) tetrahydropyrrole-2-amide [Compound 435]",6.00 to 6.30
4,"(2S,4R)-1-((S)-2-(2-((2-((5-(1r,3r)-3-(3-chloro-4-cyanophenoxy)-2,2,4,4-tetramethylcyclobutyl)-1-oxoisoindolin-5-yl)oxy)pentyl)oxy)acetamide)-3,3-dimethylbutyryl)-4-hydroxy-N-((S)-1-(4-(4-methylthiazol-5-yl)phenyl)ethyl) pyrrolidine-2-carboxamide [Compound 406]",6.30 to 7.00
5,"(2S,4R)-1-((S)-2-(3-((4-(2-((1r,3r)-3-(3-chloro-4-cyanophenoxy)-2,2,4,4-tetramethylcyclobutyl)-1-oxoisoindolin-5-yl)3-butynoxy)propylamino)-3,3-dimethylbutanol)-4-hydroxy-N-(S)-1-(4-(4-methylthiazole)phenyl)ethyl) formamide [Compound 34]",> 7.00
